From ChEMBL document CHEMBL4049438, “Discovery and Optimization of Isoquinoline Ethyl Ureas as Antibacterial Agents” (J Med Chem, 2017)
Converted amounts (≈) assume the structure as drawn.

Tests used:
[1] = Half life in human blood at 1 uM by LC-MS/MS analysis; format: ADME, tissue-based
[2] = test system: Rattus norvegicus; test: AUC in Wistar rat assessed as [3-(3-Ethyl-ureido)-5-(2-methyl-pyridin-4-yl)-isoquinolin-8-ylmethyl]-carbamic Acid Methyl Ester at 0.64 mg/kg, iv administered as solution up to 24 hrs by LC-MS/MS analysis; format: ADME, organism-based; parameters: time < 24 hr, dose 0.64 mg/kg, route intravenous; details: in vivo
[3] = test system: Rattus norvegicus; test: Half life in Wistar rat assessed as [3-(3-Ethyl-ureido)-5-(2-methyl-pyridin-4-yl)-isoquinolin-8-ylmethyl]-carbamic Acid Methyl Ester at 0.64 mg/kg, iv administered as solution up to 24 hrs by LC-MS/MS analysis; format: ADME, organism-based; details: in vivo
[4] = test system: Rattus norvegicus; test: Volume of distribution in steady state in Wistar rat assessed as [3-(3-Ethyl-ureido)-5-(2-methyl-pyridin-4-yl)-isoquinolin-8-ylmethyl]-carbamic Acid Methyl Ester at 0.64 mg/kg, iv administered as solution up to 24 hrs by LC-MS/MS analysis; format: ADME, organism-based; details: in vivo
[5] = AUC in Wistar rat at 0.64 mg/kg, iv administered as solution up to 24 hrs by LC-MS/MS analysis; format: ADME, organism-based; parameters: time < 24 hr, dose 0.64 mg/kg, route intravenous; details: in vivo
[6] = Clearance in Wistar rat at 0.64 mg/kg, iv administered as solution up to 24 hrs by LC-MS/MS analysis; format: ADME, organism-based; details: in vivo
[7] = Half life in Wistar rat at 0.64 mg/kg, iv administered as solution up to 24 hrs by LC-MS/MS analysis; format: ADME, organism-based; details: in vivo
[8] = Volume of distribution in steady state in Wistar rat at 0.64 mg/kg, iv administered as solution up to 24 hrs by LC-MS/MS analysis; format: ADME, organism-based; details: in vivo, read-out: Vdss
[9] = test system: Rattus norvegicus; test: AUC in Wistar rat assessed as [3-(3-Ethyl-ureido)-5-(2-methyl-pyridin-4-yl)-isoquinolin-8-ylmethyl]-carbamic Acid Methyl Ester at […], po administered as suspension up to 24 hrs by LC-MS/MS analysis; format: ADME, organism-based; details: in vivo
[10] = test system: Rattus norvegicus; test: Cmax in Wistar rat assessed as [3-(3-Ethyl-ureido)-5-(2-methyl-pyridin-4-yl)-isoquinolin-8-ylmethyl]-carbamic Acid Methyl Ester at […], po administered as suspension up to 24 hrs by LC-MS/MS analysis; format: ADME, organism-based; details: in vivo
[11] = test system: Rattus norvegicus; test: Tmax in Wistar rat assessed as [3-(3-Ethyl-ureido)-5-(2-methyl-pyridin-4-yl)-isoquinolin-8-ylmethyl]-carbamic Acid Methyl Ester at […], po administered as suspension up to 24 hrs by LC-MS/MS analysis; format: ADME, organism-based; details: in vivo
[12] = test system: Rattus norvegicus; test: Oral bioavailability in Wistar rat assessed as [3-(3-Ethyl-ureido)-5-(2-methyl-pyridin-4-yl)-isoquinolin-8-ylmethyl]-carbamic Acid Methyl Ester at […] administered as suspension up to 24 hrs by LC-MS/MS analysis; format: ADME, organism-based; details: in vivo
[13] = test system: Rattus norvegicus; test: AUC in Wistar rat at […], po administered as suspension up to 24 hrs by LC-MS/MS analysis; format: ADME, organism-based; details: in vivo, BLD = below limit of detection
[14] = Half life in rat blood at 1 uM by LC-MS/MS analysis; format: ADME, tissue-based
[15] = Solubility of compound in water at pH 6.3; format: physicochemical
[16] = Stability of the compound at room temperature for weeks; format: physicochemical
[17] = Half life in mouse blood at 1 uM by LC-MS/MS analysis; format: ADME, tissue-based
[18] = test system: Staphylococcus aureus; test: Antibacterial activity against methicillin-sensitive Staphylococcus aureus A-1178 infected in neutropenic mouse assessed as change in bacterial burden in thighs at […], iv administered every 2.75 hrs for 2 times measured 6.5 hrs post infection; format: functional
[19] = test system: Staphylococcus aureus; test: Antibacterial activity against methicillin-sensitive Staphylococcus aureus A-1178 infected in neutropenic mouse assessed as change in bacterial burden in thighs at 38.4 mg/kg, iv administered every 2.75 hrs for 2 times measured 6.5 hrs post infection; format: functional

CCNC(=O)Nc1cc2c(-c3cc[n+](COP(=O)([O-])O)c(C)c3)ccc(CNC(=O)OC)c2cn1 gave a half-life at 1 µM [1] of 18 min, an AUC [2] of 301 ng·h/mL and a t1/2 [3] of 48 min. It also gave a Vdss [4] of 1.1 L/kg, an AUC at 24 h [5] of 79 ng·h/mL and a clearance [6] of 130 mL/min/kg. For the same compound, the half-life [7] was 12 min, the Vd [8] was 0.5 L/kg and the AUC [9] was 310 ng·h/mL. The Cmax [10] was 250 ng/mL, the Tmax [11] was 30 min and the F [12] was 30%. For the same compound, the AUC [13] was “Bld”, the half-life at 1 µM [14] was 60 min and the solubility [15] was 12.7 mg/mL (≈ 25.2 mM). The Stability [16] was “Stable”, the half-life at 1 µM [17] was 96 min and the Activity [18] was -3.6 deltalog10CFU. It also gave an Activity [19] of less than -4.8 deltalog10CFU.
